The values below are quoted from earlier work in patent publication US20140322314A1, “Omega-3 Fatty Acid Formulations for Use as Pharmaceutical Treatment” (Matinas BioPharma, Inc., priority 2013, published 2014).

The conditions of the data set: in vivo.

SMILES strings stand for the structures.

With `CC[C@H](C)C(=O)O[C@H]1C[C@@H](C)C=C2C=C[C@H](C)[C@H](CC[C@@H]3C[C@@H](O)CC(=O)O3)[C@H]21` [lovastatin], the absorbed at rates result is on record as “about 30%”.
For `CC(C)n1c(/C=C/C(O)CC(O)CC(=O)O)c(-c2ccc(F)cc2)c2ccccc21` (centres unmarked) [fluvastatin], the bioavailable result was “approximately 24%”.
